Measurements as given in ChEMBL document CHEMBL1135481, “SMall Molecule Growth 2001 (SMoG2001): an improved knowledge-based scoring function for protein-ligand interactions” (J Med Chem, 2002).
Numbered stars: 1 amine (or outer) side, 2 acyl side, 3 side chain; on linkers, the order of the positions; unused ones are H or OH. Square brackets hold non-standard residues; d marks the D form. Peptide text beside a SMILES is read from it. * marks the point of attachment. X1 = CC(C)CC(C[C@H](O)[C@H](CC1CCCCC1)N[*:1])C(=O)[*:2]; Boc = CC(C)(C)OC(=O)*

Key:
[1] = target: Human immunodeficiency virus type 1 protease (Human immunodeficiency virus 1) (UniProt Q72874); assay: Affinity for HIV Protease
[2] = target: T1, Thermolysin (Bacillus thermoproteolyticus) (UniProt P00800); assay: Binding affinity against Thermolysin
T1 sequence (whole entry): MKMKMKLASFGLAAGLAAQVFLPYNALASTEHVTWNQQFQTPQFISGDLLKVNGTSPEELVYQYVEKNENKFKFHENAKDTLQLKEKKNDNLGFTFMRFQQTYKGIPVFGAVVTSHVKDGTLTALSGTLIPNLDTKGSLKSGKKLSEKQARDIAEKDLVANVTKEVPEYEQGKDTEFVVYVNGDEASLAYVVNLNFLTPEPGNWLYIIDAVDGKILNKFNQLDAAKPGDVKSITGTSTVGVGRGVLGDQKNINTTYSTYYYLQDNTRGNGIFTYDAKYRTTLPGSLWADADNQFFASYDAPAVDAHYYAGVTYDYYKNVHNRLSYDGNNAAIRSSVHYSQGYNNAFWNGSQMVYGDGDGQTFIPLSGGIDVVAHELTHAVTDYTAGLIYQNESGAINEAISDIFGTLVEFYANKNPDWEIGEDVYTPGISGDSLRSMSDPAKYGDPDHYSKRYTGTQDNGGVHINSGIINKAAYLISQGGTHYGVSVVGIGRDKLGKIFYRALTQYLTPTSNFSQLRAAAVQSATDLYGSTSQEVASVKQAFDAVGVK

[3] = target: T2, Mast cell carboxypeptidase A (Homo sapiens) (UniProt P15088); assay: Binding affinity against Carboxypeptidase A
T2 sequence (whole entry): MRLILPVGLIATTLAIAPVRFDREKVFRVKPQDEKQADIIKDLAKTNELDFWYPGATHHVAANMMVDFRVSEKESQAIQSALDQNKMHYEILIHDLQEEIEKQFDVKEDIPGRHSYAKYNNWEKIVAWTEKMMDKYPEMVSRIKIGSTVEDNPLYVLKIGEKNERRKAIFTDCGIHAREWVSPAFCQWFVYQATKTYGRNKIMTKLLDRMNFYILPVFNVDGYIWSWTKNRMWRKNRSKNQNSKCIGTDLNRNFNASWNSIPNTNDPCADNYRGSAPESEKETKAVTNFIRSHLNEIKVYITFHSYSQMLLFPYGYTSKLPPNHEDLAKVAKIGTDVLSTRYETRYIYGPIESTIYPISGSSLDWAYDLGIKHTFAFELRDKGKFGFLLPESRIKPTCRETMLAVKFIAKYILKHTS

[4] = Binding affinity against Neuraminidase
[5] = target: Prothrombin (Homo sapiens) (UniProt P00734); assay: Binding affinity against thrombin
[6] = target: Serine protease 1 (Homo sapiens) (UniProt P07477); assay: Binding affinity against trypsin
Trypsin II (Bos taurus) = target: T3, Trypsin II (Bos taurus) (UniProt Q29463); assay: log Kd (Binding affinity against specified protein) value of the compound
T3 sequence (whole entry): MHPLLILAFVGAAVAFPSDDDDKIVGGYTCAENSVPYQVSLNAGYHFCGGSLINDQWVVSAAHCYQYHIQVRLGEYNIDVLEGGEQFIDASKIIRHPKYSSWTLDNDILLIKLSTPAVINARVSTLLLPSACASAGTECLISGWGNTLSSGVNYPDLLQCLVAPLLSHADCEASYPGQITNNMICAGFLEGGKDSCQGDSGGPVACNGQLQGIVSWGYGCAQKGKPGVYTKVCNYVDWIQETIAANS

[7] = Binding affinity against Glucoamylase
[8] = Binding affinity against Endothiapepsin
[9] = Binding affinity against Xylose isomerase
[10] = Binding affinity against enolase
[11] = Binding affinity against Arabinose binding protein of the compound

Sequence of Serine protease 1 (Homo sapiens) (P07477 whole entry): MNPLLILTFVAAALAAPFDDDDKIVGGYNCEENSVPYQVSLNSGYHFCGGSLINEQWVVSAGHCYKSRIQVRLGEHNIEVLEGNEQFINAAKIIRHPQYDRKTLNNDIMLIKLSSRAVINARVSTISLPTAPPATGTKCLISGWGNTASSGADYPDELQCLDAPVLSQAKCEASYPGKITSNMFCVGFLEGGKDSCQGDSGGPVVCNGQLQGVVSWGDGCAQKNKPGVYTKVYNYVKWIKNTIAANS

CC1(C)SC(C(NC(=O)Cc2ccccc2)C(=O)NCc2ccccc2)NC1C(=O)NC(CO)Cc1ccccc1 (stereo unspecified)
Log Kd [1]: -8.1

CC(C)C[C@H](NP(=O)(O)O[C@@H]1O[C@@H](C)[C@H](O)[C@@H](O)[C@H]1O)C(=O)N[C@@H](Cc1c[nH]c2ccccc12)C(=O)O
Log Kd [2]: -7.56

NCCCC[C@H](NC(=O)CN)C(=O)O (H-Gly-Lys-OH)
Log Kd [3]: -3.89

CC(C)[C@H](NC(=O)N(C)Cc1ccccn1)C(=O)N[C@@H](Cc1ccccc1)C[C@@H](O)[C@H](Cc1ccccc1)NC(=O)[C@@H](NC(=O)N(C)Cc1ccccn1)C(C)C
Log Kd [1]: -10.5

COC(=O)[C@@H](NC(=O)[C@@H](NC(=O)[C@H](C)N1CCC([C@H](C)NC(=O)[C@H](C)N)=C[C@@H](Cc2ccccc2)C1)C(C)C)C(C)C
Log Kd [1]: -6.37

CC(=O)N[C@H]1[C@H]([C@H](O)[C@H](O)CO)OC(C(=O)O)=C[C@@H]1O
Log Kd [4]: -5.31

NC(N)=NCCC[C@H](NC(=O)[C@@H]1CCCN1C(=O)C(N)Cc1ccccc1)C(=O)O (stereo in doubt)
Log Kd [5]: -6.24

N=C(N)c1ccccc1
Log Kd [6]: -4.74
Log Kd (Trypsin II (Bos taurus)): -1.83

OC[C@H]1NC[C@H](O)[C@@H](O)[C@@H]1O
Log Kd [7]: -4.02

CC[C@H](C)[C@@H](NC(=O)[C@@H](C[C@H](O)[C@H](CC(C)C)NC(=O)[C@H](Cc1c[nH]cn1)NC(=O)[C@H](Cc1ccccc1)NC(=O)[C@@H]1CCCN1C(=O)[C@@H](N)Cc1c[nH]cn1)C(C)C)C(=O)N[C@@H](Cc1c[nH]cn1)C(=O)O
Log Kd [8]: -9.02

CC(C)N(C[C@H](O)[C@H](CC1CCCCC1)NC(=O)[C@H](Cc1c[nH]cn1)NC(=O)[C@H](Cc1ccccc1)NC(=O)OC(C)(C)C)C(=O)N[C@@H](CCCCN)C(=O)N[C@@H](Cc1ccccc1)C(=O)O
Log Kd [8]: -6.58

CC1(C)SC(C(NC(=O)Cc2ccccc2)C(=O)NCc2ccccc2)NC1C(=O)NC(Cc1ccccc1)C(O)CC(=O)NCC1=NC2C=CC=CC2=N1 (stereo unspecified)
Log Kd [1]: -9.69

OC[C@@H](O)[C@H](O)[C@@H](O)CO
Log Kd [9]: -5.83

CCC(C)CNC(=O)C(CC(C)C)CC(O)C(CC1CCCCC1)NC(=O)C(Cc1c[nH]cn1)NC(=O)C(Cc1cccc2ccccc12)Cc1cccc2ccccc12 (stereo unspecified)
Log Kd [8]: -6.63

NCCCCc1ccccc1
Log Kd [6]: -1.7

O=[N+]([O-])Nc1ccccc1
Log Kd [2]: -6.37

CC(C)C[C@H](NP(=O)(O)O)C(N)=O
Log Kd [2]: -5.89

CC(C)C[C@H](NC(CCc1ccccc1)C(=O)O)C(=O)N[C@@H](Cc1c[nH]c2ccccc12)C(=O)O (stereo partly specified)
Log Kd [2]: -7.13

CC(C)CC(C[C@H](O)[C@H](CC1CCCCC1)NC(=O)[C@H](Cc1c[nH]cn1)NC(=O)[C@H](Cc1ccccc1)NC(=O)OC(C)(C)C)C(=O)N[C@@H](CCCCN)C(=O)N[C@@H](Cc1ccccc1)C(=O)O (stereo partly specified) (Boc-FH[X1]KF-OH)
Log Kd [8]: -7.11

O=C(CP(=O)(O)O)NO
Log Kd [10]: -10.8

CC(C)CN(C[C@@H](O)[C@H](Cc1ccccc1)NC(=O)O[C@H]1CCOC1)S(=O)(=O)c1ccc(N)cc1
Log Kd [1]: -9.23

C[C@H]1OC(O)[C@H](O)[C@@H](O)[C@H]1O (stereo partly specified)
Log Kd [11]: -5.43

OC1OC[C@H](O)[C@H](O)[C@H]1O (stereo partly specified)
Log Kd [11]: -7.03

O=C1N(Cc2ccc3ccccc3c2)[C@H](Cc2ccccc2)[C@H](O)[C@@H](O)[C@@H](Cc2ccccc2)N1Cc1ccc2ccccc2c1
Log Kd [1]: -9.52

CC(C)[C@H](N)C(=O)N[C@@H](Cc1c[nH]c2ccccc12)C(=O)O (H-Val-Trp-OH)
Log Kd [2]: -5.91
